Measured values as given in patent publication US10168342B2, “Lipid probes and uses thereof” (THE SCRIPPS RESEARCH INSTITUTE, priority 2015, dated 2019).
Where two headings read alike, the source gives them in different places.

Key:
[1] = target: AEA-DA lipid probe targets in Neuro2a cells (Mus musculus, UniProt P47740)
[2] = target: T1, AEA-DA lipid probe targets in Neuro2a cells (Mus musculus, UniProt Q7TMK9)
T1 sequence (Q7TMK9 1-623): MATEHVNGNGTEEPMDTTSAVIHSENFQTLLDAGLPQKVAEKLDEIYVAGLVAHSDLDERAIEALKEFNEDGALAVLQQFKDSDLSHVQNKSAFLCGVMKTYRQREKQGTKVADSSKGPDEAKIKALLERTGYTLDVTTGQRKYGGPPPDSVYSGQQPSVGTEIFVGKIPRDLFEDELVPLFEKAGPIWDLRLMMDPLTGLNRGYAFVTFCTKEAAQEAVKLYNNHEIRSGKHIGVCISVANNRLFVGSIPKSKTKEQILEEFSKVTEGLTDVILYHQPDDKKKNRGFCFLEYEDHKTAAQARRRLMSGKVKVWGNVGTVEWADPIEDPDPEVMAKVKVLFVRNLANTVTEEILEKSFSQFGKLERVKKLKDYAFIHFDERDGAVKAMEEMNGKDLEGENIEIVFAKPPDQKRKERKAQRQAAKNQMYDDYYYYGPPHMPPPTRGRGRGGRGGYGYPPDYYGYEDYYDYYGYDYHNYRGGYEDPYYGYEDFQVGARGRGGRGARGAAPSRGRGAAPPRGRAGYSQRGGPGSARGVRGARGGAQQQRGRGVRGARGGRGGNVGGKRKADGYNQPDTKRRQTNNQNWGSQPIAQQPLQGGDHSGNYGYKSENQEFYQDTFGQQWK

[3] = target: AEA-DA lipid probe targets in Neuro2a cells (Mus musculus, UniProt Q60932); settings: Neuro2a cells, AEA-DA probe
[4] = target: T2, AEA-DA lipid probe targets in Neuro2a cells (Mus musculus, UniProt P52875)
T2 sequence (P52875 34-323): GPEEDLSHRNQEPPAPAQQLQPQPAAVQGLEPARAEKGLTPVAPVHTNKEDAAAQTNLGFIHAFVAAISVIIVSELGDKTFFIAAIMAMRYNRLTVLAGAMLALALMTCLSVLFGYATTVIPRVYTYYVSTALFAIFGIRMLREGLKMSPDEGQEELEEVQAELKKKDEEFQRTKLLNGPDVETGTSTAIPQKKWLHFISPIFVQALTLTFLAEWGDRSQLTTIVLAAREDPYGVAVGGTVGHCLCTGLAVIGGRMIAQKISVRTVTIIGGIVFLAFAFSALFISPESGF

[5] = target: T3, AEA-DA lipid probe targets in Neuro2a cells (Mus musculus, UniProt Q3U9G9)
T3 sequence (Q3U9G9 1-626): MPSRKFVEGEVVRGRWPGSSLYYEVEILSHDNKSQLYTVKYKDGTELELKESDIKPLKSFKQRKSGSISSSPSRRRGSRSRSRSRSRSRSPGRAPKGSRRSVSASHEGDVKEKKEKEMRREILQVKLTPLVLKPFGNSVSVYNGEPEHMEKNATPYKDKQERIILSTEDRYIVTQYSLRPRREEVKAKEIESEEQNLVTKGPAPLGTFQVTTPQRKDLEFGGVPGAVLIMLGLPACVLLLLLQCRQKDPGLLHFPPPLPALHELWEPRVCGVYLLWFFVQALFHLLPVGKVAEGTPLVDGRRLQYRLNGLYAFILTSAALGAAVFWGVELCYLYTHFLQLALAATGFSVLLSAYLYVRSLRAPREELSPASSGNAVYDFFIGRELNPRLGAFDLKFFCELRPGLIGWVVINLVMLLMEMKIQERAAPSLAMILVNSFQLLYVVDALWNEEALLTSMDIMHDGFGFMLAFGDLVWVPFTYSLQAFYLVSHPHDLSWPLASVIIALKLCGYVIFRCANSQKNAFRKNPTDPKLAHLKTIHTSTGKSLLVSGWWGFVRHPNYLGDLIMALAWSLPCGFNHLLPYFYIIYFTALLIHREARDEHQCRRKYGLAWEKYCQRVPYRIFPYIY

[6] = target: T4, AEA-DA lipid probe targets in Neuro2a cells (Mus musculus, UniProt Q80ZW2)
T4 sequence (Q80ZW2 22-207): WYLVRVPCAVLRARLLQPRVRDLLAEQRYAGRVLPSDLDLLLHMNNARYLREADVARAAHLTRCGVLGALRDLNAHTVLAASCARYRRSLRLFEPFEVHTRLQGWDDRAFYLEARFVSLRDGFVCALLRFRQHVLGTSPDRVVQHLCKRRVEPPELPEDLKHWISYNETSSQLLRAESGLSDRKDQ

[7] = target: T5, AEA-DA lipid probe targets in Neuro2a cells (Mus musculus, UniProt Q8BTX9)
T5 sequence (Q8BTX9 1-330): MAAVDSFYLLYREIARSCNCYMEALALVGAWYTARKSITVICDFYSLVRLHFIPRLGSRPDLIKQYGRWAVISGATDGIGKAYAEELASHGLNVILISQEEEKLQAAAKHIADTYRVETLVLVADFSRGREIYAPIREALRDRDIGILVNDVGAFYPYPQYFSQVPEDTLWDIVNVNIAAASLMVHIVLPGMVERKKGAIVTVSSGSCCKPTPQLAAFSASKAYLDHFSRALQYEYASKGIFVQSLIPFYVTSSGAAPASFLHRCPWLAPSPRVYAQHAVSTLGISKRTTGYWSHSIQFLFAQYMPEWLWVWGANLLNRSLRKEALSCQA

[8] = target: T6, AEA-DA lipid probe targets in Neuro2a cells (Mus musculus, UniProt Q8BTV1)
T6 sequence (Q8BTV1 42-347): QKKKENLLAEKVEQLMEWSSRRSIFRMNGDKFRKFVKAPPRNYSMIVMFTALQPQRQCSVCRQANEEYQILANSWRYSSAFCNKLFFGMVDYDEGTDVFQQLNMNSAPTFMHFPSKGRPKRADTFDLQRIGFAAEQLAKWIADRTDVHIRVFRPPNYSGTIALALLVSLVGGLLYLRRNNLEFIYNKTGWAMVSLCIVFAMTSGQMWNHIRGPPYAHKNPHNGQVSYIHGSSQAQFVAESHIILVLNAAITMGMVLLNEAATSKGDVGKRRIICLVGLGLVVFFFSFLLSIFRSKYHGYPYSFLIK

[9] = target: AEA-DA lipid probe targets in Neuro2a cells (Mus musculus, UniProt O35129)
AEA-DA lipid probe targets in Neuro2a cells (Mus musculus, UniProt O35129), sequence (O35129 whole entry): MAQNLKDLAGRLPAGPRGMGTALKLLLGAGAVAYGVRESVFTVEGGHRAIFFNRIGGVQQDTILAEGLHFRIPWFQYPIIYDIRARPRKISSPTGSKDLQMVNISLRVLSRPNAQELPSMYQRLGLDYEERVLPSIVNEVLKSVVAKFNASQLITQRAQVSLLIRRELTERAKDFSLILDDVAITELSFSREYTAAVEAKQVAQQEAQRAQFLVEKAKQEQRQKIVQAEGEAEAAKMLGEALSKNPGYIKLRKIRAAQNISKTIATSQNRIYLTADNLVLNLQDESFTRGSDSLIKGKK

AEA-DA lipid probe targets in Neuro2a cells (Mus musculus, UniProt Q60932), sequence (Q60932 whole entry): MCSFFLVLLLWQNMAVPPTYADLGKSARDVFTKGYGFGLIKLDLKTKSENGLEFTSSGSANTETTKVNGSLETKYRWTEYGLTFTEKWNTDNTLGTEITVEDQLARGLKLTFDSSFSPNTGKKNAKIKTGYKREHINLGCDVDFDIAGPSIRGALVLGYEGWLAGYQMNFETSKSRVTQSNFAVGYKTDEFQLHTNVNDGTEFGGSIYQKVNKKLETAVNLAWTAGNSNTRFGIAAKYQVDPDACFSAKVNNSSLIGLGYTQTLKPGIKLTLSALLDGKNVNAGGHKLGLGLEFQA
AEA-DA lipid probe targets in Neuro2a cells (Mus musculus, UniProt P47740), sequence (P47740 whole entry): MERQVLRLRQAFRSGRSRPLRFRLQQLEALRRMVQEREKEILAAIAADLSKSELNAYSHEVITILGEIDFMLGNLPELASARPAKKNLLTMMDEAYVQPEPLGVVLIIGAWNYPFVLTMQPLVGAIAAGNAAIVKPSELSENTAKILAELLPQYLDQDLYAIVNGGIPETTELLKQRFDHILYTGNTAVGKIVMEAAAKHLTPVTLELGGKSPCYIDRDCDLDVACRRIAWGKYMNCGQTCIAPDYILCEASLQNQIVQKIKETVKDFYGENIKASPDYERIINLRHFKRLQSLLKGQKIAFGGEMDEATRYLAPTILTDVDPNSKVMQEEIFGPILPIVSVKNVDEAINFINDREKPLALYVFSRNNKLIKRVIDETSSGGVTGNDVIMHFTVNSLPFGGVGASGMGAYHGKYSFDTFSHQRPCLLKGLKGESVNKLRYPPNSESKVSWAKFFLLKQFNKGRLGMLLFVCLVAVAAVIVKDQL

SMILES: CCCCC/C=C\C/C=C\C/C=C\C/C=C\CCCC(=O)NCCO [AEA, anandamide, reference compound]
- SILAC ratio, Aldh3a2 ([1]; competitor 200 μM): 1.7
- SILAC ratio Syncrip ([2]; competitor 200 μM): 1.2
- SILAC ratio, VDAC1 (P21796) ([3]; competitor 200 μM): 1.1
- SILAC ratio, Tmem165 ([4]; competitor 200 μM): 1.5
- SILAC ratio, Lbr ([5]; competitor 200 μM): 2.0
- SILAC ratio Them6 ([6]; competitor 200 μM): 1.9
- SILAC ratio, Hsdl1 ([7]; competitor 200 μM): 2.5
- SILAC ratio, Tusc3 ([8]; competitor 200 μM): 1.7
- SILAC ratio Phb2 ([9]; competitor 200 μM): 1.2

SMILES: O=C(/C=C/c1cccnc1)NCCCCC1CCN(C(=O)c2ccccc2)CC1 [FK-866, reference compound]
- SILAC ratio, Aldh3a2 ([1]; competitor 25 μM): 1.6
- SILAC ratio Syncrip ([2]; competitor 25 μM): 1.1
- SILAC ratio, VDAC1 (P21796) ([3]; competitor 25 μM): 1.0
- SILAC ratio, Tmem165 ([4]; competitor 25 μM): 1.1
- SILAC ratio, Lbr ([5]; competitor 25 μM): 1.0
- SILAC ratio Them6 ([6]; competitor 25 μM): 1.0
- SILAC ratio, Hsdl1 ([7]; competitor 25 μM): 1.0
- SILAC ratio, Tusc3 ([8]; competitor 25 μM): 1.3
- SILAC ratio Phb2 ([9]; competitor 25 μM): 1.1

SMILES: CN1CCN(C(=O)c2c(-c3ccccc3)c3cc([N+](=O)[O-])ccc3n2C)CC1 [KML110, (1-Methyl-5-nitro-3-phenyl-1H-indol-2-yl)(4-methylpiperazin-1-yl)methanone]
- SILAC ratio, Aldh3a2 ([1]; competitor 25 μM): 1.4
- SILAC ratio Syncrip ([2]; competitor 25 μM): 1.4
- SILAC ratio, Tmem165 ([4]; competitor 25 μM): 1.5
- SILAC ratio, Lbr ([5]; competitor 25 μM): 1.2
- SILAC ratio Them6 ([6]; competitor 25 μM): 1.3
- SILAC ratio, Hsdl1 ([7]; competitor 25 μM): 1.4
- SILAC ratio, Tusc3 ([8]; competitor 25 μM): 1.6
- SILAC ratio Phb2 ([9]; competitor 25 μM): 1.3

SMILES: CN1CCN(C(=O)c2[nH]c3ccc([N+](=O)[O-])cc3c2-c2ccccc2)CC1 [MJN228, (4-Methylpiperazin-1-yl)(5-nitro-3-phenyl-1H-indol-2-yl)methanone]
- SILAC ratio, Aldh3a2 ([1]; competitor 10 μM): 1.2
- SILAC ratio, Aldh3a2 ([1]; competitor 25 μM): 1.8
- SILAC ratio, Aldh3a2 ([1]; competitor 50 μM): 1.7
- SILAC ratio, Aldh3a2 ([1]; competitor 100 μM): 2.1
- SILAC ratio Syncrip ([2]; competitor 10 μM): 0.9
- SILAC ratio Syncrip ([2]; competitor 25 μM): 1.2
- SILAC ratio Syncrip ([2]; competitor 50 μM): 1.3
- SILAC ratio Syncrip ([2]; competitor 100 μM): 1.1
- SILAC ratio, VDAC1 (P21796) ([3]; competitor 25 μM): 1.1
- SILAC ratio, Tmem165 ([4]; competitor 10 μM): 1.0
- SILAC ratio, Tmem165 ([4]; competitor 25 μM): 1.2
- SILAC ratio, Tmem165 ([4]; competitor 100 μM): 1.5
- SILAC ratio, Lbr ([5]; competitor 10 μM): 1.1
- SILAC ratio, Lbr ([5]; competitor 25 μM): 1.3
- SILAC ratio, Lbr ([5]; competitor 50 μM): 1.5
- SILAC ratio, Lbr ([5]; competitor 100 μM): 1.8
- SILAC ratio Them6 ([6]; competitor 10 μM): 1.2
- SILAC ratio Them6 ([6]; competitor 25 μM): 1.3
- SILAC ratio Them6 ([6]; competitor 100 μM): 1.3
- SILAC ratio, Hsdl1 ([7]; competitor 10 μM): 1.1
- SILAC ratio, Hsdl1 ([7]; competitor 25 μM): 1.2
- SILAC ratio, Hsdl1 ([7]; competitor 50 μM): 1.0
- SILAC ratio, Hsdl1 ([7]; competitor 100 μM): 1.5
- SILAC ratio, Tusc3 ([8]; competitor 10 μM): 1.2
- SILAC ratio, Tusc3 ([8]; competitor 25 μM): 1.6
- SILAC ratio, Tusc3 ([8]; competitor 50 μM): 1.6
- SILAC ratio, Tusc3 ([8]; competitor 100 μM): 2.6
- SILAC ratio Phb2 ([9]; competitor 10 μM): 1.3
- SILAC ratio Phb2 ([9]; competitor 25 μM): 1.2
- SILAC ratio Phb2 ([9]; competitor 50 μM): 1.4
- SILAC ratio Phb2 ([9]; competitor 100 μM): 1.5

SMILES: C=CCN(C)CCCCCCOc1ccc(C(=O)c2ccc(Br)cc2)c(F)c1 [Ro 48-8071, reference compound]
- SILAC ratio, Aldh3a2 ([1]; competitor 25 μM): 1.3
- SILAC ratio Syncrip ([2]; competitor 25 μM): 0.8
- SILAC ratio, VDAC1 (P21796) ([3]; competitor 25 μM): 1.0
- SILAC ratio, Tmem165 ([4]; competitor 25 μM): 1.1
- SILAC ratio, Lbr ([5]; competitor 25 μM): 1.9
- SILAC ratio Them6 ([6]; competitor 25 μM): 1.0
- SILAC ratio, Hsdl1 ([7]; competitor 25 μM): 0.9
- SILAC ratio, Tusc3 ([8]; competitor 25 μM): 1.2
- SILAC ratio Phb2 ([9]; competitor 25 μM): 0.9
